Paper PMC10537105, “Derivatives Incorporating Acridine, Pyrrole, and Thiazolidine Rings as Promising Antitumor Agents” (Molecules, 2023)

Tests used:
[1] = tested on: MCF-7; assay: MTT assay, MCF-7 cells; type: cell-based, human; conditions: Homo sapiens, MCF7, 72 h of incubation, read-out: IC50 values ± SD, MCF-7
Source text: (§1) The impact of acridine spiro derivatives 6–10 (Figure 13) on the metabolic activity of various tumor cell lines HCT-116 (human colorectal carcinoma), Jurkat (human leukemia cells), HeLa (human cervical adenocarcinoma), MDA-MB-231, and MCF-7 (human breast adenocarcinoma), and normal cell lines COS-7 (monkey kidney cells) and BJ-5ta (skin fibroblasts) was investigated using the MTT assay. This assay measures the conversion of yellow 3-(4,5-dimethylthiazol-2-yl)-2,5-diphenyltetrazolium bromide (MTT) to insoluble purple formazan by metabolically active cells. The antiproliferative activities of the tested compounds were determined based on the results from the MTT assay, and the inhibitory concentration values (IC50) are presented in Table 5.
(§2) The human cancer cell lines employed in this study were sourced from reputable institutions, including the American Type Culture Collection (ATCC; Manassas, VA, USA) and the European Collection of Authenticated Cell Cultures (ECACC, Salisbury, UK). Specifically, HeLa (93021013, human cervical adenocarcinoma), HCT116 (CCL-247TM, human colorectal carcinoma), and Jurkat (88042803, human leukemic T-cell lymphoma) were cultured in RPMI 1640 medium (Biosera, Kansas City, MO, USA). In contrast, MCF-7 (HTB-22TM, human breast adenocarcinoma, ER+), MDA-MB-231 (HTB-26TM, human breast adenocarcinoma, ER−), and COS-7 (CRL-1651TM, kidney fibroblasts) were nurtured in high-glucose Dulbecco’s Modified Eagle Medium (DMEM) supplemented with sodium pyruvate (Biosera). Furthermore, BJ-5ta (CRL-4001TM, human dermal fibroblasts) was cultured in a composite medium of high-glucose DMEM and M199 (4:1) (Biosera), supplemented with Hygromycin B (0.01 mg/mL; Merck, Darmstadt, Germany). All culture media were enriched with a 10% fetal bovine serum (FBS; Gibco, Thermo Scientific, Rockford, IL, USA) and an antibiotic/antimycotic solution (Merck) to ensure optimal growth conditions. The cells were meticulously maintained within a humidified environment containing 5% CO2 at 37 °C. Regular screenings for mycoplasma contamination were conducted using Hoechst 33342 staining (Merck), confirming the integrity of the cell lines.
(§3) To assess the antiproliferative impact of the synthesized compounds 6–10, their half-maximal inhibitory concentration (IC50) and the MTT colorimetric assay were employed. MDA-MB-231 and MCF-7 cells were seeded into 96-well microplates (SARSTEDT, Nümbrecht, Germany) at a density of 5 × 10^3 cells per well. After 24 h of cell seeding, various concentrations (100, 50, and 10 µmol/L) of acridine derivatives 6–10 were introduced, alongside cisplatin (utilized as a reference) at concentrations of 5, 10, 20, 50, and 100 µmol/L. Subsequent to 24, 48, and 72 h of treatment, the cells in each well underwent incubation with MTT (5 mg/mL, Sigma-Aldrich Chemie, Steinheim, Germany) for 4 h at 37 °C in the dark. During this period, mitochondrial oxidoreductases metabolized MTT, forming insoluble formazan. Following this, 100 µL of SDS (10% […]) was added to dissolve the formazan crystals, and the cells were incubated for an additional 12 h. Absorbance at 540 nm was measured using the automated Cytation™ 3 Cell Imaging Multi-Mode Reader (Biotek, Winooski, VT, USA). Each test was performed in triplicate, and three independent experiments were conducted to ensure precision and reliability.

[2] = tested on: MDA-MB-231; assay: MTT assay, MDA-MB-231 cells; type: cell-based, human; conditions: Homo sapiens, MDA-MB-231, 72 h of incubation, read-out: IC50 values ± SD, MDA-MB-231
Source text: as §1, §2, §3

[3] = tested on: HeLa; assay: MTT assay, HeLa cells; type: cell-based, human; conditions: Homo sapiens, HeLa, 72 h of incubation, read-out: IC50 values ± SD, HeLa
Source text: as §1, §2, §3

[4] = tested on: HCT-116; assay: MTT assay, HCT-116 cells; type: cell-based, human; conditions: for IC50: Homo sapiens, HCT-116, MTT, 72 h of incubation, read-out: IC50 values ± SD, HCT-116
Source text: as §1, §2, §3

[5] = tested on: Jurkat; assay: MTT assay, Jurkat cells; type: cell-based, human; conditions: for IC50: Homo sapiens, Jurkat, MTT, 72 h of incubation, read-out: IC50 values ± SD, Jurkat
Source text: as §1, §2, §3

[6] = tested on: COS-7; assay: MTT assay, COS-7 normal cells; type: cell-based, monkey; conditions: Primates, COS-7, 72 h of incubation, normal cell line, read-out: IC50 values ± SD, COS-7
Source text: as §1, §2, §3

[7] = tested on: BJ-5ta; assay: MTT assay, BJ-5ta normal fibroblasts; type: cell-based, human; conditions: Homo sapiens, Fibroblast, 72 h of incubation, normal cell line, read-out: IC50 values ± SD, BJ-5ta
Source text: as §1, §2, §3

[8] = tested on: primary brain endothelial cells; assay: Endothelial cell viability assay (ATP, CellTiter-Glo); type: cell-based, rats; conditions: primary rat brain endothelial cells
Source text: To comprehensively evaluate the cytotoxic effects of the investigated compounds 6c, 6e, and 8a, 8c, we conducted tests on primary endothelial cells. This additional assessment served multiple purposes in our study. Firstly, it aimed to assess the selectivity of these compounds, particularly in comparison to their effects on both tumor and normal cell lines. […] Secondly, by examining their impact on endothelial cells, we aimed to explore potential off-target effects, as endothelial cells are crucial components of blood vessels and play a pivotal role in angiogenesis—a process intricately linked to tumor growth. Lastly, these tests allowed for a broader safety assessment, beyond the scope of tumor and normal cell lines, providing insights into the compounds’ implications for vascular health and their regulatory role in angiogenesis.
Primary brain endothelial cells were isolated from rats (200–250 g, […]; n = 5 per isolation). Euthanasia was performed by CO2 exposure, followed by brain removal. The brainstem and cerebellum were dissected, and the white matter from the midbrain and choroid plexus was excised under sterile conditions. Cortical tissues were meticulously cleaned of meninges and homogenized on ice in a DMEM-F12 medium (PAA Laboratories GmbH, Cölbe, Germany) with 0.1% bovine serum albumin (BSA, Sigma-Aldrich, St. Louis, MO, USA). The homogenate was centrifuged at 800× g for 10 min at 4 °C. After aspirating the supernatant, the pellet was resuspended in a pre-warmed digestion mix containing 1 mg/mL collagenase/dispase (Roche Diagnostics, Indianapolis, IN, USA) and 10 μg/mL DNase I (Roche Diagnostics, Indianapolis, IN, USA). The homogenates were then incubated with the pre-prepared digestion mix at 37 °C for 30 min with gentle shaking. The preparation was centrifuged at 800× g for 10 min at 4 °C, and the pellets were resuspended in 20% BSA in the medium. The tissues were centrifuged at 1500× g for 15 min at 4 °C to obtain a pellet containing microvessels with a fraction of myelin and BSA on top, which was centrifuged again. The microvessels were pooled and resuspended in a pre-warmed digestion mix and incubated for 15 min at 37 °C. The pellet was then centrifuged at 800× g for 10 min at 4 °C and washed with a serum-containing DMEM-F12 culture medium. […] The endothelial cells were ready to use after 7 days.
The endothelial cell viability was assessed through the quantification of adenosine triphosphate (ATP) released from the cells, utilizing the ATP assay as per the manufacturer’s instructions (The Promega CellTiter-Glo™ Luminescent Cell Viability Assay Kit, Madison, WI, USA). […]

Compound | IC50 [1] | IC50 [2] | IC50 [3] | IC50 [4] | IC50 [5] | IC50 [6] | IC50 [7] | IC50 [8] | melting point | selectivity index, HCT-116 compared to non-tumor cells COS-7 and BJ-5ta ([4]; ratio of IC50 values) | selectivity index, Jurkat compared to non-tumor cells COS-7 and BJ-5ta ([5]; ratio of IC50 values)
N#CC1=CC2(c3ccccc3Nc3ccccc32)N(NC(=S)Nc2ccc([N+](=O)[O-])cc2)C1=O [6e, 3-{4′-Cyano-5′-oxo-1′,5′-dihydro-10H-spiro[acridine-9,2′-pyrrol]-1′-yl}-1-(4-nitrophenyl)thiourea] | 39.7 ± 0.58 µM | 78.8 ± 4.87 µM | 52.1 ± 2.99 µM | 19.6 ± 1.07 µM | 7.82 ± 0.31 µM | 87.1 ± 5.82 µM | 71.1 ± 2.62 µM | 45 µM | 175 to 179 °C (dec.) |  | 
CCOC(=O)/C=C1\S/C(=N\N2C(=O)C(C#N)=CC23c2ccccc2Nc2ccccc23)N(c2cccc(OC)c2)C1=O [8c, Ethyl 2-[(2Z,5Z)-2-({4′-cyano-5′-oxo-1′,5′-dihydro-10H-spiro[acridine-9,2′-pyrrol]-1′-yl}imino)-3-(3-methoxyphenyl)-4-oxo-1,3-thiazolidin-5-ylidene]acetate] | 7.75 ± 0.41 µM | 7.98 ± 0.93 µM | 5.83 ± 0.03 µM | 5.44 ± 0.05 µM | 5.67 ± 0.03 µM | 8.95 ± 0.08 µM | 7.18 ± 0.19 µM | 20 µM | 239 to 243 °C (dec.) |  | 
CCOC(=O)/C=C1\S/C(=N\N2C(=O)C(C#N)=CC23c2ccccc2Nc2ccccc23)N(c2ccccc2)C1=O [8a, Ethyl 2-[(2Z,5Z)-2-({4′-cyano-5′-oxo-1′,5′-dihydro-10H-spiro[acridine-9,2′-pyrrol]-1′-yl}imino)-4-oxo-3-phenyl-1,3-thiazolidin-5-ylidene]acetate] | 7.9 ± 0.49 µM | 7.85 ± 0.69 µM | 5.77 µM | 5.46 ± 0.04 µM | 5.67 ± 0.06 µM | 9.15 ± 0.12 µM | 7.25 ± 0.41 µM | 5 µM | 256 to 259 °C (dec.) |  | 
COc1cccc(NC(=S)NN2C(=O)C(C#N)=CC23c2ccccc2Nc2ccccc23)c1 [6c, 3-{4′-Cyano-5′-oxo-1′,5′-dihydro-10H-spiro[acridine-9,2′-pyrrol]-1′-yl}-1-(3-methoxyphenyl)thiourea] | 34.2 ± 5.01 µM | 47.2 ± 1.17 µM | 41.1 ± 1.91 µM | 7 ± 0.22 µM | 6.47 ± 0.27 µM | 83.4 ± 4.79 µM | 73.2 ± 2.41 µM | 39 µM | 184 to 186 °C (dec.) | exceeding 10 | exceeding 10
CC1S/C(=N\N2C(=O)C(C#N)=CC23c2ccccc2Nc2ccccc23)N(c2ccc(F)cc2)C1=O (stereo not drawn) [9d, 1′-{[(2Z)-3-(4-Fluorophenyl)-5-methyl-4-oxo-1,3-thiazolidin-2-ylidene]amino}-5′-oxo-1′,5′-dihydro-10H-spiro[acridine-9,2′-pyrrole]-4′-carbonitrile] | > 100 µM | > 100 µM | > 100 µM | > 100 µM | > 100 µM | > 100 µM | > 100 µM |  | 235 to 239 °C (dec.) |  | 
CCCC1S/C(=N\N2C(=O)C(C#N)=CC23c2ccccc2Nc2ccccc23)N(c2ccccc2)C1=O (stereo not drawn) [10a, 5′-Oxo-1′-{[(2Z)-4-oxo-3-phenyl-5-propyl-1,3-thiazolidin-2-ylidene]amino}-1′,5′-dihydro-10H-spiro[acridine-9,2′-pyrrole]-4′-carbonitrile] | > 100 µM | > 100 µM | > 100 µM | > 100 µM | > 100 µM | > 100 µM | > 100 µM |  | 238 to 240 °C (dec.) |  | 
